Results from patent US20240199623A1 (ILDONG PHARMACEUTICAL CO., LTD., priority 2020, published 2024).
In brackets after ≈: the same amount, converted by molar mass.

Columns and labels:
[1] = Phosphate-buffered saline (PBS) solubility of compounds; format: physicochemical; conditions: aqueous buffer, thermodynamic from solid, PBS pH 7.5, 0.5 mg/mL, vortexed 90 min, filtered, LC-MS/MS, read-out: Solubility Range
Protocol: PBS solutions (pH 7.5) were prepared according to the following compositions and stored at 4° C. Test compounds were dissolved in PBS (pH 7.5) at 0.5 mg/mL and vortexed for 90 min. The PBS solution was sequentially filtered through a 0.45, 1.2, […] syringe filter. Concentration of test compounds were determined using LC-MS/MS with appropriate dilution of the samples.

human wild type-CFTR = human wild type-CFTR (Homo sapiens, UniProt P13569); assay: Cell-based YFP assay; parameters: expressed in transfected cells; host or cells: CHO-K1 (Chinese hamster ovary); conditions: CHO-K1 cells expressing human wild type-CFTR and YFP-H148Q/I152L; forskolin 20 μM = 100% activity; read-out: Cell-based YFP Assay (EC50) Concentration Range
Method in brief: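 CHO-K1 cells co-expressing human wild-type CFTR and YFP-H148Q/I152L halide sensor, grown 48 h at 37 °C, then in PBS. YFP quenching by I⁻ influx read at 37 °C after adding 140 mM I⁻ solution, sampled every 0.4 s for 14 s. Triplicates averaged; EC50 fitted.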

human wild type-CFTR, sequence (P13569 whole entry): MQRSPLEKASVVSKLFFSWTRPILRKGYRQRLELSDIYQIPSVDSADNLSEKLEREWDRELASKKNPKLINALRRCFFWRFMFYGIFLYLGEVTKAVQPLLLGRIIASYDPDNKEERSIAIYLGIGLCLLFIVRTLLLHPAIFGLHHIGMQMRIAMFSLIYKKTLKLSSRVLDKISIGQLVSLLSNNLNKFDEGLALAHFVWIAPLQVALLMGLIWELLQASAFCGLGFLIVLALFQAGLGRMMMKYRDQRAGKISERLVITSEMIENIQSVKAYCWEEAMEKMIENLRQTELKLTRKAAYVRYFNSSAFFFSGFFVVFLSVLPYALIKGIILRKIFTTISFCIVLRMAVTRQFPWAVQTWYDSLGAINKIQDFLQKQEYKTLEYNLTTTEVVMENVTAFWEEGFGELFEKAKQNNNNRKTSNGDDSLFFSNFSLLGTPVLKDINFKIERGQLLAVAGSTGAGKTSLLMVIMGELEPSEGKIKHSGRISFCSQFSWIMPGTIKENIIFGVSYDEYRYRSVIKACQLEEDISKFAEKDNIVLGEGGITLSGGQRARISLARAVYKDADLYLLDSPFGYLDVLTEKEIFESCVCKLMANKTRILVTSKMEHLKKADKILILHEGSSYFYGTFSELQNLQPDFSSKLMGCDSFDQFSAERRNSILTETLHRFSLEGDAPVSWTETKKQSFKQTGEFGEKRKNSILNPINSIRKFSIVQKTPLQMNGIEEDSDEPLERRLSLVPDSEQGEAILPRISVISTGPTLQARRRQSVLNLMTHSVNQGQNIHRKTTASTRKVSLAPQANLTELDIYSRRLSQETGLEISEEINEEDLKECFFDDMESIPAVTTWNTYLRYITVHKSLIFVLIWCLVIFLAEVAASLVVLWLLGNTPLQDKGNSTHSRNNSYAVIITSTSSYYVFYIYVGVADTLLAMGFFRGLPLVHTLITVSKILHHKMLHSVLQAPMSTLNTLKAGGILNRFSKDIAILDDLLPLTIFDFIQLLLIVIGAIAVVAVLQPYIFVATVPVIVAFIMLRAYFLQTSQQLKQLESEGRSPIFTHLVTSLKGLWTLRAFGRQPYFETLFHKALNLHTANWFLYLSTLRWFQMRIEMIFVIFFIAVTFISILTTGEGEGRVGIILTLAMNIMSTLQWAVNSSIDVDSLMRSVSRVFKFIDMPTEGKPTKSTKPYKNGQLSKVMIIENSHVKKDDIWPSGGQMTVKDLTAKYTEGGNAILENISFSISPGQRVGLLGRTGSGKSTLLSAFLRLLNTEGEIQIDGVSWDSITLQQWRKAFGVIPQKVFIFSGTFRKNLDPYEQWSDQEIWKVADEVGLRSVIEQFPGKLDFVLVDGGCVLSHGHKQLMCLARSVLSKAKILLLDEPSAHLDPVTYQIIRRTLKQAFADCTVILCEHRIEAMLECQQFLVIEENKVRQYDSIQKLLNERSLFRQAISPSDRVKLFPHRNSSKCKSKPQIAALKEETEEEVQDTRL

SMILES | solubility at 90 min [1] [µg/mL] | EC50 (human wild type-CFTR) [nM]
COC(=O)c1cccc(NC(=O)c2cc3nccc(-c4ccc(OC)c(OC)c4)n3n2)c1 [Compound 8, methyl 3-(7-(3,4-dimethoxyphenyl)pyrazolo [1,5-a]pyrimidine-2-carboxamido)benzoate] | < 0.1 | 
COc1ccc(-c2ccnc3cc(C(=O)N[C@H]4CC[C@@H](C(=O)O)CC4)nn23)cc1OC [Compound 19, (1S,4S)-4-(7-(3,4-dimethoxyphenyl)pyrazolo [1,5-a]pyrimidine-2-carboxamido)cyclohexane-1-carboxylic acid] | > 10 | 
COC(=O)c1ccc(NC(=O)c2cc3nccc(-c4ccc(OC)c(Cl)c4)n3n2)cc1 [Compound 39, methyl 4-(7-(3-chloro-4-methoxyphenyl)pyrazolo [1,5-a]pyrimidine-2-carboxamido)benzoate] | < 0.1 | 200 to 2000
COC(=O)[C@H](CO)NC(=O)c1ccc(NC(=O)c2cc3nccc(-c4ccc(OC)c(OC)c4)n3n2)cc1 [Compound 43, methyl (4-(7-(3,4-dimethoxyphenyl)pyrazolo [1,5-a]pyrimidine-2-carboxamido)benzoyl)-L-serinate] | < 0.1 | < 200
COc1ccc(-c2ccnc3cc(C(=O)N4C[C@H](C)N(C(=O)c5ccccc5)C[C@@H]4C)nn23)cc1OC [Compound 366, ((2S,5S)-4-benzoyl-2,5-dimethylpiperazin-1-yl)(7-(3,4-dimethoxyphenyl)pyrazolo[1,5-a]pyrimidin-2-yl)methanone] |  | < 200
COc1ccc(-c2ccnc3cc(C(=O)N4CCN(C(=O)c5ccccc5)C5(CC5)C4)nn23)cc1OC [Compound 367, (4-benzoyl-4,7-diazaspiro [2.5]octan-7-yl)(7-(3,4-dimethoxyphenyl)pyrazolo[1,5-a]pyrimidin-2-yl)methanone] |  | < 200
COc1ccc(-c2ccnc3cc(C(=O)N4CCN(C(=O)c5cccc(C)c5)[C@@H](C)C4)nn23)cc1OC [Compound 369, (S)-(7-(3,4-dimethoxyphenyl)pyrazolo[1,5-a]pyrimidin-2-yl)(3-methyl-4-(3-methylbenzoyl)piperazin-1-yl)methanone] |  | < 200
COc1ccc(-c2ccnc3cc(C(=O)N4CCN[C@@H](C(C)C)C4)nn23)cc1OC [Compound 372, (S)-(7-(3,4-dimethoxyphenyl)pyrazolo[1,5-a]pyrimidin-2-yl)(3-isopropylpiperazin-1-yl)methanone] |  | 200 to 2000
CCC[C@H]1CN(C(=O)c2cc3nccc(-c4ccc(OC)c(OC)c4)n3n2)CCN1 [Compound 373, (S)-(7-(3,4-dimethoxyphenyl)pyrazolo[1,5-a]pyrimidin-2-yl)(3-propylpiperazin-1-yl)methanone] |  | 200 to 2000
COc1ccc(-c2ccnc3cc(C(=O)N4CCN(C(=O)c5ccccc5)[C@@H](C(C)C)C4)nn23)cc1OC [Compound 376, (S)-(4-benzoyl-3-isopropylpiperazin-1-yl)(7-(3,4-dimethoxyphenyl)pyrazolo[1,5-a]pyrimidin-2-yl)methanone] |  | < 200
CCC[C@H]1CN(C(=O)c2cc3nccc(-c4ccc(OC)c(OC)c4)n3n2)CCN1C(=O)c1ccccc1 [Compound 377, (S)-(4-benzoyl-3-propylpiperazin-1-yl) (7-(3,4-dimethoxyphenyl)pyrazolo [1,5-a]pyrimidin-2-yl)methanone] |  | < 200
COc1ccc(-c2ccnc3cc(C(=O)N4CCN(C(=O)c5ccccc5)[C@@H](C5CC5)C4)nn23)cc1OC [Compound 378, (S)-(4-benzoyl-3-cyclopropylpiperazin-1-yl)(7-(3,4-dimethoxyphenyl)pyrazolo[1,5-a]pyrimidin-2-yl) methanone] |  | < 200
COc1ccc(-c2ccnc3cc(C(=O)N4CCN(C(=O)c5ccccc5C)[C@@H](C)C4)nn23)cc1OC [Compound 381, (S)-(7-(3,4-dimethoxyphenyl)pyrazolo[1,5-a]pyrimidin-2-yl) (3-methyl-4-(2-methylbenzoyl)piperazin-1-yl)methanone] |  | < 200
COc1ccc(-c2ccnc3cc(C(=O)N4CCN(C(=O)c5cccnc5)[C@@H](C)C4)nn23)cc1OC [Compound 382, (S)-(7-(3,4-dimethoxy-phenyl)pyrazolo[1,5-a]pyrimidin-2-yl) (3-methyl-4-nicotinoylpiperazin-1-yl)methanone] |  | < 200

Further lines, results first:

solubility at 90 min [1] [µg/mL] | EC50 (human wild type-CFTR) [nM] | SMILES
< 0.1 | < 200 | COc1ccc(-c2ccnc3cc(C(=O)Nc4ccccc4)nn23)cc1OC [Compound 1, 7-(3,4-dimethoxyphenyl)-N-phenylpyrazolo[1,5-a] pyrimidine-2-carboxamide]
0.1 to 10 (≈ 0.228 to 22.8 µM) |  | COc1ccc(-c2ccnc3cc(C(=O)N[C@H]4CC[C@@H](C(=O)OC)CC4)nn23)cc1OC [Compound 9, methyl (1S,4S)-4-(7-(3,4-dimethoxyphenyl)pyrazolo [1,5-a]pyrimidine-2-carboxamido)cyclohexane-1-carboxylate]
> 10 | ≥ 2000 | COc1ccc(-c2ccnc3cc(C(=O)Nc4cccc(C(=O)O)c4)nn23)cc1OC [Compound 16, 3-(7-(3,4-dimethoxyphenyl)pyrazolo[1,5-a]pyrimidine-2-carboxamido)benzoic acid]
< 0.1 | 200 to 2000 | COc1ccc(-c2ccnc3cc(C(=O)Nc4cccnc4)nn23)cc1OC [Compound 18, 7-(3,4-dimethoxyphenyl)-N-(pyridin-3-yl) pyrazolo[1,5-a]pyrimidine-2-carboxamide]
> 10 |  | COc1ccc(-c2ccnc3cc(C(=O)N[C@H]4CC[C@H](C(=O)O)CC4)nn23)cc1OC [Compound 21, (1R,4R)-4-(7-(3,4-dimethoxyphenyl)pyrazolo [1,5-a]pyrimidine-2-carboxamido)cyclohexane-1-carboxylic acid]
< 0.1 | < 200 | COC(=O)c1ccc(NC(=O)c2cc3nccc(-c4cc(OC)c(OC)c(OC)c4)n3n2)cc1 [Compound 32, methyl 4-(7-(3,4,5-trimethoxyphenyl)pyrazolo [1,5-a]pyrimidine-2-carboxamido)benzoate]
< 0.1 | < 200 | CCOC(=O)COc1ccc(NC(=O)c2cc3nccc(-c4ccc(OC)c(OC)c4)n3n2)cc1 [Compound 34, ethyl 2-(4-(7-(3,4-dimethoxyphenyl)pyrazolo [1,5-a]pyrimidine-2-carboxamido)phenoxy) acetate]
< 0.1 | < 200 | COC(=O)[C@H](C)NC(=O)c1ccc(NC(=O)c2cc3nccc(-c4ccc(OC)c(OC)c4)n3n2)cc1 [Compound 42, methyl (4-(7-(3,4-dimethoxyphenyl)pyrazolo [1,5-a]pyrimidine-2-carboxamido)benzoyl)-L-alaninate]
0.1 to 10 (≈ 0.208 to 20.8 µM) |  | COc1ccc(-c2ccnc3cc(C(=O)N4CCC(NC(=O)OC(C)(C)C)CC4)nn23)cc1OC [Compound 100, tert-butyl (1-(7-(3,4-dimethoxyphenyl)pyrazolo[1,5-a]pyrimidine-2-carbonyl)piperidin-4-yl)carbamate]
 | < 200 | COc1ccc(-c2ccnc3cc(C(=O)N4C[C@H](C)N(C(=O)c5ccccc5)C[C@H]4C)nn23)cc1OC [Compound 365, ((2R,5S)-4-benzoyl-2,5-dimethylpiperazin-1-yl)(7-(3,4-dimethoxyphenyl)pyrazolo[1,5-a]pyrimidin-2-yl)methanone]
 | < 200 | COc1ccc(-c2ccnc3cc(C(=O)N4CCN(C(=O)c5ccccc5F)[C@@H](C)C4)nn23)cc1OC [Compound 368, (S)-(7-(3,4-dimethoxyphenyl)pyrazolo[1,5-a]pyrimidin-2-yl)(4-(2-fluorobenzoyl)-3-methylpiperazin-1-yl)methanone]
 | < 200 | COc1ccc(-c2ccnc3cc(C(=O)N4CCN(C(=O)c5ccoc5)[C@@H](C)C4)nn23)cc1OC [Compound 370, (S)-(7-(3,4-dimethoxyphenyl)pyrazolo[1,5-a]pyrimidin-2-yl)(4-(furan-3-carbonyl)-3-methylpiperazin-1-yl)methanone]
 | 200 to 2000 | CC[C@H]1CN(C(=O)c2cc3nccc(-c4ccc(OC)c(OC)c4)n3n2)CCN1 [Compound 371, (S)-(7-(3,4-dimethoxyphenyl)pyrazolo[1,5-a]pyrimidin-2-yl)(3-ethylpiperazin-1-yl)methanone]
 | 200 to 2000 | COc1ccc(-c2ccnc3cc(C(=O)N4CCN[C@@H](C5CC5)C4)nn23)cc1OC [Compound 374, (S)-(3-cyclopropylpiperazin-1-yl)(7-(3,4-dimethoxyphenyl)pyrazolo [1,5-a]pyrimidin-2-yl)methanone]
 | < 200 | CC[C@H]1CN(C(=O)c2cc3nccc(-c4ccc(OC)c(OC)c4)n3n2)CCN1C(=O)c1ccccc1 [Compound 375, (S)-(4-benzoyl-3-ethylpiperazin-1-yl)(7-(3,4-dimethoxyphenyl)pyrazolo [1,5-a]pyrimidin-2-yl)methanone]
 | < 200 | COc1ccc(-c2ccnc3cc(C(=O)N4CCN(C(=O)c5ccsc5)[C@@H](C)C4)nn23)cc1OC [Compound 379, (S)-(7-(3,4-dimethoxyphenyl)pyrazolo[1,5-a]pyrimidin-2-yl)(3-methyl-4-(thiophene-3-carbonyl)piperazin-1-yl)methanone]
 | 200 to 2000 | COc1ccc(-c2ccnc3cc(C(=O)N4CCN(C(=O)c5ncccn5)[C@@H](C)C4)nn23)cc1OC [Compound 383, (S)-(7-(3,4-dimethoxy-phenyl)pyrazolo[1,5-a]pyrimidin-2-yl)(3-methyl-4-(pyrimidine-2-carbonyl)piperazin-1-yl)methanone]
